The test system of this test is Kp. In words: AATCC TM 100 antimicrobial test on treated polyester after home launderings. The conditions noted are these: for AATCC TM 100, Antimicrobial Test result (Kp - log reduction): 1.5% o.w.f. on polyester.

On to `[Na+].[O-][n+]1ccccc1[S-]` [Sodium Pyrithione], for which the “AATCC TM 100, Antimicrobial Test result (Kp - log reduction)” value (1 HL) was found to be 0.5 log reduction and the “AATCC TM 100, Antimicrobial Test result (Kp - log reduction)” value (25 HL) came to 0 log reduction. In addition, the “antimicrobial performance (in words)” value (after one cycle of home laundering) is “little efficacy” and the “antimicrobial performance (in words)” value (after twenty-five home launderings) is given as “did not have antimicrobial performance”.
